These results are taken from publication PMC4747340, “A new class of small molecule estrogen receptor-alpha antagonists that overcome anti-estrogen resistance” (Oncotarget, 2015).

What all share (format): cell-based
In one experiment the target is T1, ER Ile386Ala+Leu387Ala (Homo sapiens, UniProt P03372, I386A/L387A).
T1 construct: expressed in transfected cells; host or cells: MDA-MB-231
Kind of experiment: ER mutation analysis, ERE-TK-Luc reporter in transfected MDA-MB-231 cells. The conditions noted are these: MDA-MB-231 transfected with mutant ER, E2 10 nM, 24 hr. An excerpt: (§1) B., C. Panels B and C show a comparison of the ER interaction of one of our original series of compounds (A7) (B) and one new compounds (48693-K/1) (C). ER is represented by gray ribbon and its residues interacting with the compounds are drawn with wireframe and labeled. […] The hydrogen bond interaction with ARG 394 is shown in green line. […] The cells were harvested for luciferase assays. Luciferase values are expressed as a percent of the +E2 vehicle control and are means ± SEMs of four wells. The data shown in panels D to G are representative of three independent experiments.
(§2) Subconfluent cells in 24-well dishes were transfected overnight with 0.25 μg of each indicated vector plus the ERE-TK-Luc reporter in serum-free DMEM containing Lipofectamine2000 (Life Technologies, Washington, DC). Total transfected DNA was kept constant by addition of control vector. The cells were washed, incubated in phenol red-free DMEM containing 5% charcoal-stripped serum (obtained from the Tissue Culture Shared Resource) (0.2 ml/well) ± E2 (10 nM) ± the indicated compound for 24-hr, and harvested for luciferase assays. For each assay condition was tested in quadrupicate. To monitor the transfection efficiency, cultures were co-transfected with plasmid pRSV-β-gal (Promega, Madison, WI) to visualize transfected cells by X-gal staining.

In the next experiment the target is T2, ER Leu327Ala (Homo sapiens, UniProt P03372, L327A).
T2 construct: expressed in transfected cells; host or cells: MDA-MB-231
The description is as above. To be noted: MDA-MB-231 transfected with mutant ER, E2 10 nM, 24 hr.
From the text: as §1, §2

The target in another experiment is T3, ER Leu387Ala (Homo sapiens, UniProt P03372, L387A).
T3 construct: expressed in transfected cells; host or cells: MDA-MB-231
The experiment is described as above. To be noted: MDA-MB-231 transfected with mutant ER, E2 10 nM, 24 hr.
From the text: as §1, §2

In the next experiment the target is T4, ER Pro324Ala (Homo sapiens, UniProt P03372, P324A).
T4 construct: expressed in transfected cells; host or cells: MDA-MB-231
Described as above. To be noted: MDA-MB-231 transfected with mutant ER, E2 10 nM, 24 hr.
From the text: as §1, §2

The target in another experiment is T5, ER Pro325Ala (Homo sapiens, UniProt P03372, P325A).
T5 construct: expressed in transfected cells; host or cells: MDA-MB-231
Described as above. To be noted: MDA-MB-231 transfected with mutant ER, E2 10 nM, 24 hr.
From the text: as §1, §2

A further experiment concerns the target T6, ER-β (Homo sapiens, UniProt Q92731).
T6 construct: host or cells: DU-145
Kind of experiment: E2-stimulated ER-β activity, ERE-TK-Luc reporter in transfected DU-145 cells. Here is the method:
(§3) Figure 12 Compound 35446 inhibits the activity of ER-β Subconfluent proliferating DU-145 cells in 24-well dishes were transfected overnight with the ER=α or ER=β expression vector plus the ERE-TK-Luc reporter plasmid (0.25 μg per plasmid/well), washed, and allowed to recover for several hours in fresh culture medium. The cells were then post-incubated for 24 hr to allow gene expression, after which they were treated ± E2 (10 nM) and ± compound 35446 (20 μM) (or compound B2 as a negative control) for 24 hr and assayed for luciferase activity. Luciferase activity is expressed relative to the no E2 control. Values are means ± SEMs of four replicate wells. The data shown in each panel are representative of three independent experiments.
To determine the effect of compound on ER-β activity, an ER- β expression plasmid (cat. no.: 35562, Addgene, Cambridge) was co-transfected into ER- DU-145 human prostate carcinoma cells along with the ERE-TK-Luc reporter plasmid (0.25 μg of each plasmid) and the cells were incubated overnight to allow gene expression. The cells were then treated ± E2 (10 nM) and ± the indicated compound for 24-hr, and harvested for luciferase assays as above.

The target in a further experiment is T7, ER-α (Homo sapiens, UniProt P03372).
T7 construct: expressed in transfected cells; host or cells: DU-145
As to the kind of experiment: E2-stimulated ER-α activity, ERE-TK-Luc reporter in transfected DU-145 cells. To be noted: DU-145 transfected with ER-α, E2 10 nM, compound 20 μM, 24 hr. Here is the method:
as §3
Subconfluent cells in 24-well dishes were transfected overnight with 0.25 μg of each indicated vector plus the ERE-TK-Luc reporter in serum-free DMEM containing Lipofectamine2000 (Life Technologies, Washington, DC). Total transfected DNA was kept constant by addition of control vector. The cells were washed, incubated in phenol red-free DMEM containing 5% charcoal-stripped serum (obtained from the Tissue Culture Shared Resource) (0.2 ml/well) ± E2 (10 nM) ± the indicated compound for 24-hr, and harvested for luciferase assays. For each assay condition was tested in quadrupicate. […]

pIC50: −log10 of the molar value.

T6 sequence (Q92731 whole entry): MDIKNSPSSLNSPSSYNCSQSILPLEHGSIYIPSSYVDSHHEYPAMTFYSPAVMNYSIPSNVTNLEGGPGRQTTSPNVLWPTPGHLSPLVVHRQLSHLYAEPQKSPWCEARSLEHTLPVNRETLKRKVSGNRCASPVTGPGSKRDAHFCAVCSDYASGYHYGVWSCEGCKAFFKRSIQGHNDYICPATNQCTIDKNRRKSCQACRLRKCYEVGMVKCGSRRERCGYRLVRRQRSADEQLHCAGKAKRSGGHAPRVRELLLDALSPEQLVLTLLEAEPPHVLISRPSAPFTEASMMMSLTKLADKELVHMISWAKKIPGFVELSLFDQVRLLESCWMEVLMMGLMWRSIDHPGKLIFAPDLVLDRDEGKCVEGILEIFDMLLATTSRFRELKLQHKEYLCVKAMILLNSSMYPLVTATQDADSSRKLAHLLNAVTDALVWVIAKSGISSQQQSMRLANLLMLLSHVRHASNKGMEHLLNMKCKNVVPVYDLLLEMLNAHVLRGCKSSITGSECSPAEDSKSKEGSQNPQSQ
T5 sequence (P03372 whole entry P325A): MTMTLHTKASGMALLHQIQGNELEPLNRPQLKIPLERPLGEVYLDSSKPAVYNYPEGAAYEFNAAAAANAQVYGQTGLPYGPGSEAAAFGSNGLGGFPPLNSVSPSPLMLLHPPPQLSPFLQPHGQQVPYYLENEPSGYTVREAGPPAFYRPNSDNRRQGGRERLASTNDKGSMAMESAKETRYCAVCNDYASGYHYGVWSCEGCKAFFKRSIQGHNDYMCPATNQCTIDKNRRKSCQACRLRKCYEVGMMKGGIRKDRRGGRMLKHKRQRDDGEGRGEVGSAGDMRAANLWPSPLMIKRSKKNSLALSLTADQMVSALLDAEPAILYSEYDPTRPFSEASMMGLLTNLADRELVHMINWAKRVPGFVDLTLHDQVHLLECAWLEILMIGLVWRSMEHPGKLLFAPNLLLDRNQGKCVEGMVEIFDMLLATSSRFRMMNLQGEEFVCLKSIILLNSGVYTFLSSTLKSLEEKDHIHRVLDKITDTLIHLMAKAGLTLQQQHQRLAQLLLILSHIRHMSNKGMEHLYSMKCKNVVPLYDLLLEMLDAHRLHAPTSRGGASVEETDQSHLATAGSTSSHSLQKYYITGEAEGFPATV
T4 sequence (P03372 whole entry P324A): as the sequence (P03372 whole entry P325A) above, with P324A, A325P counted along it
T7 sequence (P03372 whole entry): as the sequence (P03372 whole entry P325A) above, with A325P counted along it
T3 sequence (P03372 whole entry L387A): as the sequence (P03372 whole entry P325A) above, with A325P, L387A counted along it
T1 sequence (P03372 whole entry I386A/L387A): as the sequence (P03372 whole entry P325A) above, with A325P, I386A, L387A counted along it
T2 sequence (P03372 whole entry L327A): as the sequence (P03372 whole entry P325A) above, with A325P, L327A counted along it

Turning to `O=C(CC(c1ccccc1)N1CCCCC1)c1ccccc1` (centres unmarked) [35446-L/1, 1,3-diphenyl-3-(piperidin-1-yl)propan-1-one], the IC50 (as a rule, the concentration that inhibits the measured activity by half) is over 15 µM at ER Ile386Ala+Leu387Ala; 0.9 µM on ER Leu327Ala; 5 µM against ER Leu387Ala; over 15 µM against ER Pro324Ala; 0.9 µM at ER Pro325Ala. Moreover, the inhibition (commonly the share of the control response that was lost under treatment) at 20 µM on ER-β (DU-145, read-out: inhibition of E2-stimulated ER-β activity) was about 67%; against ER-α, over 90%. On ER-β (DU-145 transfected with ER-β, E2 10 nM, 24 hr, read-out: IC50 for inhibition of ER-β activity), the negative-log IC50 (pIC50) (commonly the IC50 on a negative log10 scale, so that one unit is a factor of ten) is 5.70.
